Columns and labels:
Format in all cases: cell-based
[1] = system: HONE-1 (nasopharyngeal carcinoma); test: Growth inhibition, methylene blue dye assay, HONE-1; details: Homo sapiens, HONE1, 72 h
Protocol: (§1) Compound 1 was evaluated against 21 human tumor cell lines derived from nine cancer cell types: nasopharyngeal carcinoma (HONE-1, CPT 30, and HONE-cis6), cervical carcinoma (KB, KB-CPT100, KB7D, KB-1036, KB-S15, and KB-vin10), gastric carcinoma (TSGH), breast carcinoma (MCF-7), colorectal carcinoma (HT29), non-small cell lung carcinoma (H460), lymphoma (BJAB and H9), leukemia (CEM and HL 60), and hepatocellular carcinoma (Hep 3B, Hep G2, Huh 7, and Hcc36). […] Compound 140 was tested against the following 15 cell lines: HONE-1, CPT 30, and HONE-cis6, KB, KB-CPT100, KB7D, KB-1036, KB-S 15, and KB-vin10, TSGH, MCF-7, H460, BJAB, H9, and Hep G2. Compound 32 was tested against the following 8 cell lines: HONE-1, KB, TSGH, MCF-7, H460, BJAB, H9, and Hep G2.
(§2) Cells in logarithmic growth phase were cultured at a density of 5000 cells/ml/well in a 24-well plate. Drug-resistant cells were cultured in a medium free of test compounds for 3 days before use. The cells were exposed to various concentrations of a test compound for 72 h. The methylene blue dye assay was used to evaluate the effect of the test compound on cell growth, as has been described in Finlay et al., Anal. Biochem. 1984, 139, 272-277. The IC50 value resulting from 50% inhibition of cell growth was calculated graphically as a comparison with control growth.

KB (cervical carcinoma) = test: Growth inhibition, methylene blue dye assay, KB; details: Homo sapiens, 72 h
Protocol: as §1, §2

TSGH (gastric carcinoma) = test: Growth inhibition, methylene blue dye assay, TSGH; details: Homo sapiens, 72 h
Protocol: as §1, §2

MCF-7 (breast carcinoma) = test: Growth inhibition, methylene blue dye assay, MCF7; details: Homo sapiens, MCF7, 72 h
Protocol: as §1, §2

[2] = system: H460 (non-small cell lung carcinoma); test: Growth inhibition, methylene blue dye assay, H460; details: Homo sapiens, NCI-H460, H460, 72 h
Protocol: as §1, §2

BJAB (lymphoma) = test: Growth inhibition, methylene blue dye assay, BJAB; details: Homo sapiens, 72 h
Protocol: as §1, §2

H9 (lymphoma) = test: Growth inhibition, methylene blue dye assay, H9; details: Homo sapiens, H9, 72 h
Protocol: as §1, §2

[3] = system: Hep G2 (hepatocellular carcinoma); test: Growth inhibition, methylene blue dye assay, Hep G2; details: Homo sapiens, HepG2, Hep G2, 72 h
Protocol: as §1, §2

human tumor cell lines = test: Growth inhibition, methylene blue dye assay, panel of tumor cell lines; details: most of the tested cell lines, 72 h
Protocol: as §1, §2

[4] = system: Human cervical carcinoma KB cells; test: Growth inhibition assay, KB cells (MTS); details: 72 h, read-out: IC50 (concentration causing 50% cell growth inhibition)
Protocol: Anticancer activities of the compounds of this invention were evaluated using a growth inhibition assay described in Kuo et al., Cancer Res. 2004, 64(13), 4621-4628.
Human cervical carcinoma KB cells were maintained in plastic dishes in DMEM medium supplemented with 10% fetal bovine serum. For in vitro treatment, tumor cells were seeded in […] of culture medium/well in 96-well plates to a final cell density of 6×10^3 cell/mL and incubated in a CO2 incubator at 37° C. for 24 h. The cells were treated with at least five different concentrations of a test compound, and incubated in a CO2 incubator at 37° C. for 72 h. The number of viable cells was estimated using MTS assay and absorbance was measured at 490 nm. For each test compound, dose-response curves were measured with at least five different drug concentrations, and the concentration causing 50% cell growth inhibition (IC50) compared with the control was calculated.

[5] = system: CPT30 (nasopharyngeal carcinoma); test: Growth inhibition, methylene blue dye assay, CPT30; details: Homo sapiens; CPT30, drug-resistant, camptothecin-driven selection, 72 h
Protocol: as §1, §2

[6] = system: HONE-cis6 (nasopharyngeal carcinoma); test: Growth inhibition, methylene blue dye assay, HONE-cis6; details: Homo sapiens; HONE-cis6, drug-resistant, cisplatin-driven selection, 72 h
Protocol: as §1, §2

[7] = system: KB-CPT100 (cervical carcinoma); test: Growth inhibition, methylene blue dye assay, KB-CPT100; details: Homo sapiens, KBCPT100; KB-CPT100, drug-resistant, camptothecin-driven selection, 72 h
Protocol: as §1, §2

[8] = system: KB7D (cervical carcinoma); test: Growth inhibition, methylene blue dye assay, KB7D; details: Homo sapiens, VP-16-driven selection, 72 h
Protocol: as §1, §2

[9] = system: KB-1036 (cervical carcinoma); test: Growth inhibition, methylene blue dye assay, KB-1036; details: Homo sapiens; KB-1036, D-501036 driven selection, 72 h
Protocol: as §1, §2

[10] = system: KB-S15 (cervical carcinoma); test: Growth inhibition, methylene blue dye assay, KB-S15; details: Homo sapiens; KB-S15, drug-resistant, paclitaxel-driven selection, 72 h
Protocol: as §1, §2

[11] = system: KB-vin10 (cervical carcinoma); test: Growth inhibition, methylene blue dye assay, KB-vin10; details: Homo sapiens; KB-vin10, vincristine-driven selection, 72 h
Protocol: as §1, §2

[12] = system: HT29 (colorectal carcinoma); test: Growth inhibition, methylene blue dye assay, HT29; details: Homo sapiens, HT-29, HT29, 72 h
Protocol: as §1, §2

CEM (leukemia) = test: Growth inhibition, methylene blue dye assay, CEM; details: Homo sapiens, 72 h
Protocol: as §1, §2

HL 60 (leukemia) = test: Growth inhibition, methylene blue dye assay, HL60; details: Homo sapiens, HL60, 72 h
Protocol: as §1, §2

[13] = system: Hep 3B (hepatocellular carcinoma); test: Growth inhibition, methylene blue dye assay, Hep 3B; details: Homo sapiens, Hep3B, 72 h
Protocol: as §1, §2

[14] = system: Huh 7 (hepatocellular carcinoma); test: Growth inhibition, methylene blue dye assay, Huh 7; details: Homo sapiens, Huh 7, 72 h
Protocol: as §1, §2

[15] = system: Hcc36 (hepatocellular carcinoma); test: Growth inhibition, methylene blue dye assay, Hcc36; details: Homo sapiens, Hcc36, 72 h
Protocol: as §1, §2

COc1ccc(C(=O)c2oc3ccc4c(C)cc(=O)oc4c3c2-c2ccccc2)cc1 [Compound 32]
IC50 [1]: 55 nM
IC50 (KB (cervical carcinoma)): 41 nM
IC50 (TSGH (gastric carcinoma)): 150 nM
IC50 (MCF-7 (breast carcinoma)): 150 nM
IC50 [2]: 40 nM
IC50 (BJAB (lymphoma)): 45 nM
IC50 (H9 (lymphoma)): 124 nM
IC50 [3]: 5500 nM
IC50 (human tumor cell lines): < 150 nM

Cc1cc(=O)oc2c1ccc1oc(C(=O)c3ccccc3)c(C3CCCCC3)c12 [Compound 165]
IC50 [4]: 101 to 999 nM

Cc1cc(=O)oc2c1ccc1oc(C(=O)c3ccc4ccccc4c3)c(-c3ccc(Br)cc3)c12 [Compound 208]
IC50 [4]: 1000 to 10000 nM

Cc1cc(=O)oc2c1ccc1oc(C(=O)c3ccccc3)c(-c3cccc(F)c3)c12 [Compound 133]
IC50 [4]: 101 to 999 nM

Cc1cc(=O)oc2c1ccc1oc(C(=O)c3ccc([N+](=O)[O-])cc3)c(-c3ccccc3)c12 [Compound 51]
IC50 [4]: 101 to 999 nM

Cc1cc(=O)oc2c1ccc1oc(C(=O)c3ccc(Cl)c(Cl)c3)c(-c3ccccc3)c12 [Compound 58]
IC50 [4]: 101 to 999 nM

O=C(c1ccccc1)c1oc2ccc3ccc(=O)oc3c2c1-c1ccccc1 [Compound 2]
IC50 [4]: 101 to 999 nM

Cc1cc(=O)oc2c1ccc1oc(C(=O)c3ccccc3)c(-c3ccccc3)c12 [Compound 1, 8-benzoyl-4-methyl-9-phenyl-furo[2,3-h]chromen-2-one]
IC50 [1]: 2 nM
IC50 [5]: 8.5 nM
IC50 [6]: 4.5 nM
IC50 (KB (cervical carcinoma)): 1.3 to 1.8 nM
IC50 [7]: 6.25 nM
IC50 [8]: 0.8 nM
IC50 [9]: 4 nM
IC50 [10]: 0.5 nM
IC50 [11]: 2.5 nM
IC50 (TSGH (gastric carcinoma)): 17 nM
IC50 (MCF-7 (breast carcinoma)): 4 nM
IC50 [12]: 7 nM
IC50 [2]: 0.5 nM
IC50 (BJAB (lymphoma)): 110 nM
IC50 (H9 (lymphoma)): 3.5 nM
IC50 (CEM (leukemia)): 1000 nM
IC50 (HL 60 (leukemia)): 1000 nM
IC50 [13]: 35000 nM
IC50 [3]: 3500 nM
IC50 [14]: 26700 nM
IC50 [15]: 10800 nM
IC50 (human tumor cell lines): < 10 nM

Cc1cc(=O)oc2c1ccc1oc(C(=O)c3cccc(OCCO[Si](C)(C)C(C)(C)C)c3)c(-c3ccccc3)c12 [Compound 189]
IC50 [4]: 101 to 999 nM

O=C(c1ccccc1)c1oc2ccc3c4c(c(=O)oc3c2c1-c1ccccc1)CCCC4 [Compound 21]
IC50 [4]: 1000 to 10000 nM

Cc1cc(=O)oc2c1ccc1oc(C(=O)c3ccc(Cl)cc3)c(-c3ccccc3)c12 [Compound 49]
IC50 [4]: 101 to 999 nM

CCOC(=O)c1cc(C(=O)c2oc3ccc4c(C)cc(=O)oc4c3c2-c2ccccc2)on1 [Compound 110]
IC50 [4]: 1000 to 10000 nM

Cc1cc(=O)oc2c1ccc1oc(C(=O)c3ccccc3)c(-c3cccc(Cl)c3)c12 [Compound 136]
IC50 [4]: 101 to 999 nM

Cc1cc(=O)oc2c1ccc1oc(C(=O)c3ccc(OCCN(C)C)cc3)c(-c3ccccc3)c12 [Compound 266]
IC50 [4]: 1000 to 10000 nM

Cc1cc(=O)oc2c1ccc1oc(C(=O)C3CCCCC3)c(-c3ccccc3)c12 [Compound 127]
IC50 [4]: 1000 to 10000 nM

Cc1cc(=O)oc2c1ccc1oc(C(=O)c3cccc(Cl)c3)c(-c3ccc(Br)cc3)c12 [Compound 217]
IC50 [4]: 101 to 999 nM

CCCCCCCCCCOc1cccc(C(=O)c2oc3ccc4c(C)cc(=O)oc4c3c2-c2ccccc2)c1 [Compound 244]
IC50 [4]: 101 to 999 nM

CCCOc1cccc(C(=O)c2oc3ccc4c(C)cc(=O)oc4c3c2-c2ccc(Br)cc2)c1 [Compound 253]
IC50 [4]: 101 to 999 nM

Cc1cc(=O)oc2c1ccc1oc(C(=O)c3cc(Cl)sc3Cl)c(-c3ccccc3)c12 [Compound 97]
IC50 [4]: 1000 to 10000 nM

CO/N=C(\c1ccccc1)c1oc2ccc3c(C)cc(=O)oc3c2c1-c1ccccc1 [Compound 176]
IC50 [4]: 1000 to 10000 nM

Cc1cc(=O)oc2c1ccc1oc(/C(=N/OCc3ccccc3)c3ccccc3)c(-c3ccccc3)c12 [Compound 175]
IC50 [4]: 101 to 999 nM

CCCCCCCCCCc1c(C(=O)c2ccccc2)oc2ccc3c(C)cc(=O)oc3c12 [Compound 158]
IC50 [4]: 1000 to 10000 nM

Cc1cc(=O)oc2c1ccc1oc(C(O)c3ccccc3)cc12 (centres unmarked) [Compound 226]
IC50 [4]: 101 to 999 nM

Cc1cc(=O)oc2c1ccc1oc(C(=O)c3ccccc3)c(C)c12 [Compound 154]
IC50 [4]: 101 to 999 nM

Cc1cc(=O)oc2c1ccc1oc(C(=O)c3ccccc3O)c(-c3ccccc3)c12 [Compound 204]
IC50 [4]: 101 to 999 nM

Cc1cc(=O)oc2c1ccc1oc(C(=O)c3ccccc3)c(-c3ccc(Br)cc3)c12 [Compound 140]
IC50 [1]: 3 nM
IC50 [5]: 10.5 nM
IC50 [6]: 10 nM
IC50 (KB (cervical carcinoma)): 7.7 nM
IC50 [7]: 9 nM
IC50 [8]: 8 nM
IC50 [9]: 13 nM
IC50 [10]: 10 nM
IC50 [11]: 10 nM
IC50 (TSGH (gastric carcinoma)): 41 nM
IC50 (MCF-7 (breast carcinoma)): 13 nM
IC50 [2]: 3 nM
IC50 (BJAB (lymphoma)): 60 nM
IC50 (H9 (lymphoma)): 20 nM
IC50 [3]: 2600 nM
IC50 (human tumor cell lines): < 10 nM

Cc1ccc(C(=O)c2oc3ccc4c(C)cc(=O)oc4c3c2-c2ccccc2)c(C)c1 [Compound 62]
IC50 [4]: 101 to 999 nM

CCCc1c(C(=O)c2ccccc2)oc2ccc3c(C)cc(=O)oc3c12 [Compound 155]
IC50 [4]: 101 to 999 nM

Cc1c(Cc2ccccc2)c(=O)oc2c1ccc1oc(C(=O)c3ccccc3)c(-c3ccccc3)c12 [Compound 19]
IC50 [4]: 1000 to 10000 nM

Cc1cc(=O)oc2c1ccc1oc(C(=O)c3ccc4ccccc4c3)c(-c3ccc(F)cc3)c12 [Compound 220]
IC50 [4]: 101 to 999 nM

Cc1cc(=O)oc2c1ccc1oc(C(=O)c3ccccc3)c(-c3ccc(Cl)cc3)c12 [Compound 137]
IC50 [4]: 101 to 999 nM

Cc1cc(=O)oc2c1ccc1oc(C(=O)c3ccc(F)cc3)c(-c3ccccc3)c12 [Compound 46]
IC50 [4]: 101 to 999 nM

Cc1cc(=O)oc2c1ccc1oc(C(=O)c3ccc(OC(F)(F)F)cc3)c(-c3ccccc3)c12 [Compound 38]
IC50 [4]: 101 to 999 nM

Cc1cc(=O)oc2c1ccc1oc(C(=O)c3ccc(F)c(F)c3)c(-c3ccccc3)c12 [Compound 60]
IC50 [4]: 101 to 999 nM

Cc1ccc(C(=O)c2oc3ccc4c(C)cc(=O)oc4c3c2-c2ccccc2)cc1 [Compound 41]
IC50 [4]: 101 to 999 nM

Cc1cc(=O)oc2c1ccc1oc(C(=O)c3ccc(N(C)C)cc3)c(-c3ccccc3)c12 [Compound 264]
IC50 [4]: 101 to 999 nM
